Assay results taken from ChEMBL document CHEMBL6092204, “Synthesis of pyridyl pyrimidine hedgehog signaling pathway inhibitors and their antitumor activity in human pancreatic cancer” (Eur J Med Chem, 2024).
Active and inactive are the calls of the source. The rule behind the calls is not given here.

Columns and labels:
PANC-1 = experiment: Induction of apoptosis in human PANC-1 cells assessed as late apoptotic cells at 8 uM incubated for 48 hrs by Annexin V-FITC/PI staining based flow cytometry (reference value: 2.74 %); type: functional
[1] = Toxicity in BALB/c nude mouse xenografted with human BxPC-3 cells assessed as necrosis in liver at 5 to 15 mg/kg, ip qd for 21 days by H and E staining based analysis; conditions: in vivo, 504 h
BXPC-3 [2] = experiment: Induction of cell cycle arrest in human BXPC-3 cells assessed as accumulation at G2 phase at 5 uM incubated for 48 hrs by PI/RNase staining based flow cytometry (reference value: 8.15 %); type: functional
BXPC-3 [3] = experiment: Induction of apoptosis in human BXPC-3 cells assessed as early apoptotic cells at 2.5 uM incubated for 48 hrs by Annexin V-FITC/PI staining based flow cytometry (reference value: 1.11 %); type: functional
BXPC-3 [4] = experiment: Induction of apoptosis in human BXPC-3 cells assessed as early apoptotic cells at 5 uM incubated for 48 hrs by Annexin V-FITC/PI staining based flow cytometry (reference value: 1.11 %); type: functional
[5] = Toxicity in BALB/c nude mouse xenografted with human BxPC-3 cells assessed as tissue fibrosis in kidneys at 5 to 15 mg/kg, ip qd for 21 days by H and E staining based analysis; conditions: in vivo, 504 h
BXPC-3 [6] = experiment: Induction of apoptosis in human BXPC-3 cells assessed as necrotic cells at 5 uM incubated for 48 hrs by Annexin V-FITC/PI staining based flow cytometry (reference value: 0.71 %); type: functional
Mus musculus = experiment: In vivo inhibition of Gli1 in human BxPC-3 cells xenografted in BALB/c nude mouse at 5 to 15 mg/kg, ip qd for 21 days by IHC analysis; conditions: dose 5-15 mg/kg, time 21.0 day

## CN(C)Cc1ccc(NC(=O)c2ccc(Nc3nccc(-c4cccnc4)n3)cc2)cc1
PANC-1
  Activity: 8.97%
[1]
  Activity: Non-toxic
BXPC-3 [2]
  Activity: 12.5%
BXPC-3 [3]
  Activity: 2.11%
BXPC-3 [4]
  Activity: 2.71%
[5]
  Activity: Non-toxic
BXPC-3 [6]
  Activity: 1.02%
Mus musculus
  inhibition: Active
